Each structure is given as a SMILES string. The source made the active and inactive calls. No cut-off for these calls is given here.

A word on the IC50: it is the concentration at which inhibition is half-maximal.

The target of experiment [1] is RmtA (Emericella nidulans, UniProt Q5VLE3). Nature of the experiment: Inhibition of Aspergillus nidulans RmtA by TRF assay.
The target in experiment [2] is T1, Histone-lysine N-methyltransferase SETD7 (Homo sapiens) (UniProt Q8WTS6).
T1 sequence (whole entry): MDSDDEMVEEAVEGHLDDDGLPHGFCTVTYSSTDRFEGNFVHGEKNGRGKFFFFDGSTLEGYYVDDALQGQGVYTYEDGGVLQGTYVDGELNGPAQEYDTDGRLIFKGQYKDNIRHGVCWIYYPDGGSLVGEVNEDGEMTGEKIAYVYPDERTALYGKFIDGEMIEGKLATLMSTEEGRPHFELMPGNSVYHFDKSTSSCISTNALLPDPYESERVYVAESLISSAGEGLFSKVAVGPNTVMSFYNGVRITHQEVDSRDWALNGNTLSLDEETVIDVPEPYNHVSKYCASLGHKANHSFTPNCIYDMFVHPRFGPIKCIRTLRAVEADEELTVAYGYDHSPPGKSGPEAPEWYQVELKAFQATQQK
Nature of the experiment: Inhibition of lysine methyltransferase SET7/9 at 50 uM.

The target of experiment [3] is RmtA (Emericella nidulans) (UniProt Q5VLE3). In words: Inhibition of Aspergillus nidulans RmtA at 40 uM by TRF assay. More on the design: scale not given: the % may be the effect or the level left.
RmtA (Emericella nidulans), sequence (Q5VLE3 as listed by the source): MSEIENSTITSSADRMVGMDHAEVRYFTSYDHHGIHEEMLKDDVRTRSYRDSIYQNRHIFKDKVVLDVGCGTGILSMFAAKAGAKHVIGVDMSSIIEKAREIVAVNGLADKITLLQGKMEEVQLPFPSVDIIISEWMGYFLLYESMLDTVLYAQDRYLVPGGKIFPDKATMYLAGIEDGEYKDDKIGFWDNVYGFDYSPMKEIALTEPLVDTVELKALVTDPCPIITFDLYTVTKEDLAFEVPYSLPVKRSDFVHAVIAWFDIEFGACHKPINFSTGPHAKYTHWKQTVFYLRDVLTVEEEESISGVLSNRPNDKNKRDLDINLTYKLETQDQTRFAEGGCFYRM
In experiment [4] the target is Protein arginine N-methyltransferase 1 (Homo sapiens) (UniProt Q99873). Nature of the experiment: Inhibition of human PRMT1 at 40 uM by TRF assay. The arrangement: scale not given: the % may be the effect or the level left.
Protein arginine N-methyltransferase 1 (Homo sapiens), sequence (Q99873 whole entry, looked up): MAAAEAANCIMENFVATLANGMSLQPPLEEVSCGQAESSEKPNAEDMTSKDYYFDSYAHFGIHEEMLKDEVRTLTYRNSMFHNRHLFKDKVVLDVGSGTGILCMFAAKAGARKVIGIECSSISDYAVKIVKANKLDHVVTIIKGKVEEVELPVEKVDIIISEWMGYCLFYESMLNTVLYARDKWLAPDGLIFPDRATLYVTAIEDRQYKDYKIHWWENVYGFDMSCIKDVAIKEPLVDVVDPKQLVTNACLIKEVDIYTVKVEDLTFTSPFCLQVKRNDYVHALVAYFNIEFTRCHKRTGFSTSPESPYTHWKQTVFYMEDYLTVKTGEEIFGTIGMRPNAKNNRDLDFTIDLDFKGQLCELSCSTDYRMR

RmtA, sequence (Q5VLE3 whole entry): as the sequence (Q5VLE3 as listed by the source) above

Compound `CC(SC1c2ccccc2Oc2ccccc21)C(=O)NCCNC(=O)C(C)SC1c2ccccc2Oc2ccccc21` (stereo not given) displayed a 50% inhibitory concentration (IC50) in experiment [1] of 46.2 µM. Further, the result in experiment [2] was inactive.
In the case of `CC(SC1c2ccccc2Oc2ccccc21)C(=O)NCCOCCOCCNC(=O)C(C)SC1c2ccccc2Oc2ccccc21` (stereo not given), the Activity in experiment [3] and in experiment [4] was less than 20% each time.
In the case of `O=C(CSC1c2ccccc2Oc2ccccc21)N1CCCCC1`, the Activity in experiment [3] and in experiment [4] was less than 20% throughout.
In experiment [1], `CC(S)C(=O)NCCCN` (stereo not given) returned a 50% inhibitory concentration (IC50) of 46.8 µM. Further, the Activity in experiment [4] was less than 20%.
`CC(SC1c2ccccc2Sc2ccccc21)C(=O)N1CCCC1` (stereo not given): the Activity in experiment [3] and in experiment [4] was less than 20% each time.
